Measured values as given in ChEMBL document CHEMBL2057111, “(+)-Pinoresinol is a putative hypoglycemic agent in defatted sesame (Sesamum indicum) seeds though inhibiting α-glucosidase” (Bioorg Med Chem Lett, 2012).
The source made the active and inactive calls. No cut-off for these calls is given here.

Legend:
[1] = biological target: Lysosomal alpha-glucosidase (Rattus norvegicus) (UniProt Q6P7A9); conditions: 0.1 to 1 mg/ml
[2] = biological target: Lysosomal alpha-glucosidase (Rattus norvegicus) (UniProt Q6P7A9); conditions: 0.1 to 1 mg/ml; remark: listed apart in the source
Description: Mixed type inhibition of rat intestinal maltase using maltose as substrate at 0.1 to 1 mg/ml

[3] = Inhibition of bakers yeast alpha-glucosidase using p-nitrophenyl-(alpha-D-glucopyranoside) as substrate preincubated for 10 mins before substrate addition by microplate reader; design: species or system Saccharomyces cerevisiae
[4] = biological target: Sucrase-isomaltase, intestinal (Rattus norvegicus) (UniProt P23739); assay: Inhibition of rat intestinal sucrase using sucrose as substrate at 10 mg/ml preincubated for 10 mins before substrate addition by glucose oxidase method
[5] = biological target: Lysosomal alpha-glucosidase (Rattus norvegicus) (UniProt Q6P7A9); conditions: 0.1 to 1 mg/ml; remark: listed apart in the source
Description: Non-competitive inhibition of rat intestinal maltase using maltose as substrate assessed as enzyme-substrate-inhibitor complex formation at 0.1 to 1 mg/ml by Lineweaver-Burk plot analysis

Saccharomyces cerevisiae = assay: Inhibition of bakers yeast alpha-glucosidase using p-nitrophenyl-(alpha-D-glucopyranoside) as substrate at 10 mg/ml preincubated for 10 mins before substrate addition by microplate reader
[6] = biological target: Lysosomal alpha-glucosidase (Rattus norvegicus) (UniProt Q6P7A9); assay: Inhibition of rat intestinal maltase using maltose as substrate at 10 mg/ml preincubated for 10 mins before substrate addition by glucose oxidase method

Chain of Sucrase-isomaltase, intestinal (Rattus norvegicus) (P23739 1-1013 limits assumed): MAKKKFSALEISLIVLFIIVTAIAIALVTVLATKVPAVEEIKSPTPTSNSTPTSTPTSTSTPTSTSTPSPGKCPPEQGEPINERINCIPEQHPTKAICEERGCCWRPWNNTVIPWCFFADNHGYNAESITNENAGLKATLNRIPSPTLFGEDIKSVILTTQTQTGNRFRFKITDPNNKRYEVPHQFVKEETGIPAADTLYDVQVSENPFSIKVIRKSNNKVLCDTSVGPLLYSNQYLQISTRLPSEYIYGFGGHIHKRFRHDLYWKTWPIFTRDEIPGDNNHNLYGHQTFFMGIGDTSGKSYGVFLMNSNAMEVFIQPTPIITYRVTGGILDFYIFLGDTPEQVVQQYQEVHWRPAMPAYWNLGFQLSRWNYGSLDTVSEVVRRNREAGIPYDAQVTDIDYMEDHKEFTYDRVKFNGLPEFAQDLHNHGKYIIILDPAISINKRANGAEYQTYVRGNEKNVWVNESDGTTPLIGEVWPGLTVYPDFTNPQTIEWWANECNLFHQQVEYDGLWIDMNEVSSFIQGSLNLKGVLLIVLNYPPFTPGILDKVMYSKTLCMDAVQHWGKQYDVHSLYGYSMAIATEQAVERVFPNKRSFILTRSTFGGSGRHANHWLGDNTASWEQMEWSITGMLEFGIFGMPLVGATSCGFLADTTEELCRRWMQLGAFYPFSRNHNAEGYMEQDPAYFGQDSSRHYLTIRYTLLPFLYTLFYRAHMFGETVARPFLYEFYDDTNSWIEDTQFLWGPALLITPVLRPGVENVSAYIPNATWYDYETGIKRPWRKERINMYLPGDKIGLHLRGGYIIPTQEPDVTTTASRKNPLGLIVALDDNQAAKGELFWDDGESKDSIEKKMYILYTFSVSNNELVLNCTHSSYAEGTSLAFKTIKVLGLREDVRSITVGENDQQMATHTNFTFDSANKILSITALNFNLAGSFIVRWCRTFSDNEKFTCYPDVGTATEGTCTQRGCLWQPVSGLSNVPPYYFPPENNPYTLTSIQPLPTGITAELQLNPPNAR
Chain of Sucrase-isomaltase, intestinal (Rattus norvegicus) (P23739 1014-1841 limits assumed): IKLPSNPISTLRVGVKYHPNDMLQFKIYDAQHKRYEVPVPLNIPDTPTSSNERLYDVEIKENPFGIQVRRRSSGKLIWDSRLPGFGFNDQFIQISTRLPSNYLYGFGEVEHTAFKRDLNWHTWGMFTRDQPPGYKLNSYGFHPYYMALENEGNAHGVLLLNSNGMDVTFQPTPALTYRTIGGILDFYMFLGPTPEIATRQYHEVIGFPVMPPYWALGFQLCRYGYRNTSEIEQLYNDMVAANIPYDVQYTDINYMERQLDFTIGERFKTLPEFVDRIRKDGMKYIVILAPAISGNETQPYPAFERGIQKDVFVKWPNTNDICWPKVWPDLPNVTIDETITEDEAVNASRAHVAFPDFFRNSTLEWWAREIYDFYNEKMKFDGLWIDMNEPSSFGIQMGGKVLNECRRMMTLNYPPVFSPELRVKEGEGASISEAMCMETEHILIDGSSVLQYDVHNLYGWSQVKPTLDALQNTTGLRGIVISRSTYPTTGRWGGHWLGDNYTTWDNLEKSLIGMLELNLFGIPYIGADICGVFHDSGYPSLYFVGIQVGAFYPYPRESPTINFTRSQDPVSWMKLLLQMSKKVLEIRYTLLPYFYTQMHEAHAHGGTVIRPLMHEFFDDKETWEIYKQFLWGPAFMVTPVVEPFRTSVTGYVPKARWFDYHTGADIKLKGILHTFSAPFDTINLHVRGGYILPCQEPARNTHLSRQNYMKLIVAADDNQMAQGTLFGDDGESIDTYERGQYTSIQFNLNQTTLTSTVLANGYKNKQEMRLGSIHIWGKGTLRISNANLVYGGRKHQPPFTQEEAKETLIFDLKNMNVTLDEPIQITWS
Chain of Lysosomal alpha-glucosidase (Rattus norvegicus) (Q6P7A9 whole entry): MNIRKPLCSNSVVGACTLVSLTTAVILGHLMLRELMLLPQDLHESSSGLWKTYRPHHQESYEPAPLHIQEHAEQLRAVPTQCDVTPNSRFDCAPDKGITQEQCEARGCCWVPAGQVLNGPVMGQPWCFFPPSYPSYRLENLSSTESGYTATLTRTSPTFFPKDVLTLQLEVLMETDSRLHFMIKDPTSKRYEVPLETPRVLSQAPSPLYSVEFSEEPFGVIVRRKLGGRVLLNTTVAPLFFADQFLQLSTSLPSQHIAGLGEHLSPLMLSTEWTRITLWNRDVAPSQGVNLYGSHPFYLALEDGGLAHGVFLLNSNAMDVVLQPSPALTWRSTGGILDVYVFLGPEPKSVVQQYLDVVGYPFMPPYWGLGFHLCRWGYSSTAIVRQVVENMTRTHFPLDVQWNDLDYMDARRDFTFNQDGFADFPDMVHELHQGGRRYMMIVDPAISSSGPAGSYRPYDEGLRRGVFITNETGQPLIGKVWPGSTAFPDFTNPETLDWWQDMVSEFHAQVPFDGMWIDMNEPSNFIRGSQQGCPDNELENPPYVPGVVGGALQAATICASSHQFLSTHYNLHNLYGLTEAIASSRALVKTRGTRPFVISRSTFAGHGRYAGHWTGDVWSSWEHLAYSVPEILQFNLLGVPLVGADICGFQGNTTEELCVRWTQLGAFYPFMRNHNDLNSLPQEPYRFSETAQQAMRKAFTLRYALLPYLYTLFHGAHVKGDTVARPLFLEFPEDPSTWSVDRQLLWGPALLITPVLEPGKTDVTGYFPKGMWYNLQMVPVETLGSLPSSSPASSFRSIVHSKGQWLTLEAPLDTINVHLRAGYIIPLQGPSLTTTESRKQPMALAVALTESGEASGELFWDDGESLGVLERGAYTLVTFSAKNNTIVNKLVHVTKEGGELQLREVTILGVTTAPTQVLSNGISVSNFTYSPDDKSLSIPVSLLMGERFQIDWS

Row | SMILES | inhibition [1] | inhibition [2] | IC50 [3] [µM] | inhibition [4] [%] | inhibition [5] | inhibition (Saccharomyces cerevisiae) [%] | inhibition [6] [%]
1 | COc1cc([C@@H]2OC[C@@H]3[C@H]2CO[C@H]3c2ccc(O)c(OC)c2)ccc1O [(+)-PINORESINOL] | Active | Active | 492 | < 30 | Active | – | –
2 | OC[C@H]1O[C@@H](Oc2cc3c(cc2[C@H]2OC[C@H]4[C@@H]2CO[C@@H]4c2ccc4c(c2)OCO4)OCO3)[C@H](O)[C@@H](O)[C@@H]1O | – | – | – | < 30 | – | < 30 | < 30
3 | c1cc2c(cc1O[C@H]1OC[C@H]3[C@@H]1CO[C@@H]3c1ccc3c(c1)OCO3)OCO2 [SESAMOLIN] | – | – | 200 | < 30 | – | – | < 30
4 | c1cc2c(cc1[C@H]1OC[C@H]3[C@@H]1CO[C@@H]3c1ccc3c(c1)OCO3)OCO2 [SESAMIN] | – | – | 450 | < 30 | – | – | < 30
